Experimental data: ChEMBL document CHEMBL1201862, “PubChem BioAssay data set” (2004)
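These data come from cells grown in 96-well plates and exposed to compound for 48 hours at five concentrations. GI50 marks 50% less growth.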 Calls of active or inactive are those of the source. Cut-off read from the data, not from the text of the source: active = GI50 up to about 1.1 µM and inactive = higher.

Key:
Experiment in all cases: inhibition of tumour cell growth, NCI panel, 48 h
Hs-578T = system: Hs-578T
NCI/ADR-RES = system: NCI/ADR-RES
IGROV-1 = system: IGROV-1
HT-29 = system: HT-29
ACHN = system: ACHN
HCT-15 = system: HCT-15
MDA-MB-435 = system: MDA-MB-435
NCI-H522 = system: NCI-H522
SK-MEL-2 = system: SK-MEL-2
HCC 2998 = system: HCC 2998
MOLT-4 = system: MOLT-4
SK-OV-3 = system: SK-OV-3
CAKI-1 = system: CAKI-1
PC-3 = system: PC-3
U-251 = system: U-251
SNB-75 = system: SNB-75

Row | Compound | GI50 (Hs-578T) | GI50 (NCI/ADR-RES) | GI50 (IGROV-1) | GI50 (HT-29) | GI50 (ACHN) | GI50 (HCT-15) [µM] | GI50 (MDA-MB-435) | GI50 (NCI-H522) | GI50 (SK-MEL-2) | GI50 (HCC 2998) | GI50 (MOLT-4) | GI50 (SK-OV-3) | GI50 (CAKI-1) | GI50 (PC-3) | GI50 (U-251) | GI50 (SNB-75)
1 | CSc1nc(-c2ccccc2)[nH]c(=O)n1 | > 100 µM (inactive) | > 100 µM (inactive) | > 100 µM (inactive) | > 100 µM (inactive) | > 100 µM (inactive) | > 100 | > 100 µM (inactive) | > 100 µM (inactive) | > 100 µM (inactive) | > 100 µM (inactive) | > 100 µM (inactive) | > 100 µM (inactive) | > 100 µM (inactive) | > 100 µM (inactive) | > 100 µM (inactive) | 
2 | CCOC(=O)C(C)NC(=O)C(C)NC(=O)C(C)NC(=O)C(C)NC(=O)C(C)NC(=O)OCc1ccccc1 (stereo not given) | > 100 µM (inactive) | > 100 µM (inactive) | > 100 µM (inactive) | > 100 µM (inactive) | > 100 µM (inactive) | > 100 | > 100 µM (inactive) | > 100 µM (inactive) | > 100 µM (inactive) | > 100 µM (inactive) | > 100 µM (inactive) | > 100 µM (inactive) | > 100 µM (inactive) | > 100 µM (inactive) | > 100 µM (inactive) | 78.3 µM (inactive)
3 | CC1(C)S[C@@H]2[C@H](N3C(=O)c4ccccc4C3=O)CN2[C@H]1NC(=O)N[C@@H]1N2C[C@@H](N3C(=O)c4ccccc4C3=O)[C@H]2SC1(C)C | > 100 µM (inactive) | > 100 µM (inactive) | > 100 µM (inactive) | > 100 µM (inactive) | > 100 µM (inactive) | > 100 | > 100 µM (inactive) | > 100 µM (inactive) | > 100 µM (inactive) | > 100 µM (inactive) | > 100 µM (inactive) | 80.9 µM (inactive) | > 100 µM (inactive) | > 100 µM (inactive) | 27 µM (inactive) | 58.2 µM (inactive)
4 | CCN(CC)C(=S)SNCc1ccc(S(N)(=O)=O)cc1 | 19.8 µM (inactive) | 18.9 µM (inactive) | 13.1 µM (inactive) | 8.47 µM (inactive) | 15.3 µM (inactive) | 19.1 | 19.5 µM (inactive) | 0.0191 µM (active) | 16.6 µM (inactive) | 36 µM (inactive) | 8.97 µM (inactive) | 40.1 µM (inactive) | 14.7 µM (inactive) | 13.1 µM (inactive) | 11.2 µM (inactive) | 18.5 µM (inactive)
5 | O=Cc1ccc(-c2cc(C=O)c(-c3cccs3)[nH]2)s1 | 23.4 µM (inactive) | 26.7 µM (inactive) | 15.7 µM (inactive) | 25.1 µM (inactive) | 41.4 µM (inactive) | 24.8 | 25.6 µM (inactive) | 10.3 µM (inactive) | 46.2 µM (inactive) | 16.6 µM (inactive) | 20.2 µM (inactive) | 48.4 µM (inactive) | 9.4 µM (inactive) | 35.6 µM (inactive) | 18.7 µM (inactive) | 17.1 µM (inactive)
6 | COC1=N[C@H](C(C)C)C(OC)=N[C@H]1Cc1ccc(C[C@@H]2N=C(OC)[C@@H](C(C)C)N=C2OC)s1 | 88.3 µM (inactive) | 52.6 µM (inactive) | > 100 µM (inactive) | 26.2 µM (inactive) | 29.4 µM (inactive) | 46.1 | 33.1 µM (inactive) | 23.7 µM (inactive) | 14.3 µM (inactive) | 34.2 µM (inactive) | 20 µM (inactive) | > 100 µM (inactive) | 50.2 µM (inactive) | 21.3 µM (inactive) | 24 µM (inactive) | > 100 µM (inactive)
7 | CC(C)(C)OC(=O)NCCCCC1NC(=O)[C@@H]2Cc3c([nH]c4ccccc34)C(c3ccccc3)N2C1=O (stereo not given in full) | 12.1 µM (inactive) | 35.1 µM (inactive) | 40.3 µM (inactive) | 25.6 µM (inactive) | 43.8 µM (inactive) | 31.1 | 34.2 µM (inactive) | 23 µM (inactive) | 24.7 µM (inactive) | 12.8 µM (inactive) | 15.6 µM (inactive) | 50.4 µM (inactive) | 50.5 µM (inactive) | 33.8 µM (inactive) | 35.1 µM (inactive) | 
8 | NC(=O)C[C@H](NC(=O)C1(NC(=O)[C@H](Cc2ccc(CP(=O)(O)O)cc2)NC(=O)C(=O)O)CCCCC1)C(=O)NCCCc1cccc2ccccc12 | > 10 µM (inactive) | > 10 µM (inactive) | > 10 µM (inactive) | > 10 µM (inactive) | > 10 µM (inactive) | > 10 | > 10 µM (inactive) | > 10 µM (inactive) | > 10 µM (inactive) | > 10 µM (inactive) | > 10 µM (inactive) | > 10 µM (inactive) | > 10 µM (inactive) | > 10 µM (inactive) | > 10 µM (inactive) | > 10 µM (inactive)
9 | CC[N+]1(C)CCC(O)(/C=C/c2ccc(Cl)cc2)C(C(=O)/C=C/c2ccc(Cl)cc2)C1 (stereo not given) | 3.08 µM (inactive) | 9.64 µM (inactive) | 4.7 µM (inactive) | 3.08 µM (inactive) | 3.6 µM (inactive) | 4.56 | 3.85 µM (inactive) | 2.88 µM (inactive) | 15.8 µM (inactive) | 17.5 µM (inactive) | 2.5 µM (inactive) | 18 µM (inactive) | 1.9 µM (inactive) | 10.7 µM (inactive) | 3.81 µM (inactive) | 11.3 µM (inactive)
10 | O=C1NC(N2CCCC(CO)C2)=N/C1=C\c1ccccc1 (stereo not given) | > 100 µM (inactive) | > 100 µM (inactive) | > 100 µM (inactive) | > 100 µM (inactive) | > 100 µM (inactive) | > 100 | > 100 µM (inactive) | > 100 µM (inactive) | > 100 µM (inactive) | > 100 µM (inactive) | > 100 µM (inactive) | > 100 µM (inactive) | > 100 µM (inactive) | > 100 µM (inactive) | > 100 µM (inactive) | > 100 µM (inactive)
11 | CC1=C(C)SC(=C2Sc3c(n(C)c(=O)n(C)c3=O)S2)S1 | 61.4 µM (inactive) | 55.3 µM (inactive) | 59.2 µM (inactive) | 76.9 µM (inactive) | 45 µM (inactive) | > 100 | 98.6 µM (inactive) | 57.3 µM (inactive) | 22.3 µM (inactive) | > 100 µM (inactive) | > 100 µM (inactive) | 15.5 µM (inactive) | 64.3 µM (inactive) | > 100 µM (inactive) | 4.14 µM (inactive) | 20.7 µM (inactive)
12 | Oc1ccc(-c2nc(-c3cccnc3)c(-c3ccc(Cl)cc3)[nH]2)cc1O | 12.2 µM (inactive) | 14.1 µM (inactive) | 4.34 µM (inactive) | 14.6 µM (inactive) | 9.95 µM (inactive) | 10.3 | 13.8 µM (inactive) | 1.13 µM (inactive) | 17.8 µM (inactive) | 13.7 µM (inactive) | 3.78 µM (inactive) | 12.4 µM (inactive) | 15.1 µM (inactive) | 9.2 µM (inactive) | 11 µM (inactive) | 6.05 µM (inactive)
13 | O=C(/C=C/c1ccc2ccccc2c1)NCc1ccc(C(=O)NCc2ccccc2)cc1 | 37.9 µM (inactive) | > 100 µM (inactive) | > 70 µM (inactive) | 35.7 µM (inactive) | > 68.7 µM (inactive) |  | > 100 µM (inactive) | > 56.8 µM (inactive) | > 100 µM (inactive) | > 37.2 µM (inactive) | > 66.7 µM (inactive) | > 100 µM (inactive) | 28.3 µM (inactive) | > 100 µM (inactive) | > 60 µM (inactive) | 19.6 µM (inactive)
14 | CC(C)C1OC(N)=C(C#N)C1(C#N)C#N (stereo not given) | 53.7 µM (inactive) | 58.1 µM (inactive) | 51.4 µM (inactive) | 38.1 µM (inactive) | 36.9 µM (inactive) | > 10 | 29.6 µM (inactive) | 34.6 µM (inactive) | > 100 µM (inactive) | 24.5 µM (inactive) |  | > 100 µM (inactive) | 3.79 µM (inactive) | > 100 µM (inactive) | 54.1 µM (inactive) | 33.8 µM (inactive)
15 | CC1CC[C@@]2(OC1)O[C@H]1[C@H](O)[C@H]3[C@@H]4CC[C@H]5C[C@@H](OC6OC(CO)C(OC7OC(CO)C(O)C(OC8OCC(O)C(O)C8O)C7OC7OC(CO)C(O)C(O)C7OC7OC(CO)C(O)C(O)C7O)C(O)C6O)[C@H](O)C[C@]5(C)[C@H]4CC[C@]3(C)[C@H]1[C@@H]2C (stereo not given in full) | 3.67 µM (inactive) | > 10 µM (inactive) | 3.7 µM (inactive) | > 10 µM (inactive) | > 10 µM (inactive) | > 10 | > 10 µM (inactive) | 2.78 µM (inactive) | > 10 µM (inactive) | > 10 µM (inactive) | 0.144 µM (active) |  | > 10 µM (inactive) | 2.7 µM (inactive) | 5.01 µM (inactive) | 3.1 µM (inactive)
16 | Cc1cc(C)c(C#N)c(SC(=S)NC(=O)c2ccccc2)n1 | > 100 µM (inactive) | > 100 µM (inactive) | > 100 µM (inactive) | > 100 µM (inactive) | > 100 µM (inactive) | > 100 | > 100 µM (inactive) | > 100 µM (inactive) | > 100 µM (inactive) | > 100 µM (inactive) | > 100 µM (inactive) |  | > 100 µM (inactive) | > 100 µM (inactive) | > 100 µM (inactive) | 1.53 µM (inactive)
17 | COc1cc(/C=C/c2ccnc3ccccc23)cc(OC)c1OC | 3.85 µM (inactive) | 2.46 µM (inactive) | 3.66 µM (inactive) | 1.28 µM (inactive) | 7.23 µM (inactive) | 2.56 | 0.413 µM (active) | 2.13 µM (inactive) | 3.78 µM (inactive) | 8.47 µM (inactive) | 2.92 µM (inactive) | 4.19 µM (inactive) | 3.7 µM (inactive) | 9.29 µM (inactive) | 4.99 µM (inactive) | 
